PubChem BioAssay (NCI)
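Exposure lasted 48 hours, with cells grown in 96-well plates and compounds tested at five concentrations. Here, GI50 denotes the concentration required for 50% inhibition of growth. TGI marks complete inhibition of growth.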

What was measured:
Experiment in all cases: NCI-60 cell line screen, 48 h
ACHN renal = system: ACHN renal
CAKI-1 renal = system: CAKI-1 renal
HCC-2998 colon = system: HCC-2998 colon
MDA-MB-435 = system: MDA-MB-435
MDA-N = system: MDA-N
OVCAR-5 ovarian = system: OVCAR-5 ovarian
OVCAR-8 ovarian = system: OVCAR-8 ovarian
SK-MEL-5 melanoma = system: SK-MEL-5 melanoma
SNB-19 CNS = system: SNB-19 CNS
786-0 renal = system: 786-0 renal
HCT-116 colon = system: HCT-116 colon
UACC-62 melanoma = system: UACC-62 melanoma

Row | SMILES | TGI (ACHN renal) [µM] | TGI (CAKI-1 renal) [µM] | TGI (HCC-2998 colon) [µM] | TGI (MDA-MB-435) [µM] | TGI (MDA-N) [µM] | TGI (OVCAR-5 ovarian) [µM] | TGI (OVCAR-8 ovarian) [µM] | TGI (SK-MEL-5 melanoma) [µM] | TGI (SNB-19 CNS) [µM] | TGI (786-0 renal) [µM] | TGI (HCT-116 colon) [µM] | TGI (UACC-62 melanoma) [µM] | GI50 (CAKI-1 renal) [µM] | GI50 (HCC-2998 colon) [µM] | GI50 (MDA-MB-435) [µM] | GI50 (OVCAR-5 ovarian) [µM] | GI50 (OVCAR-8 ovarian) [µM] | GI50 (SK-MEL-5 melanoma) [µM] | GI50 (UACC-62 melanoma) [µM]
1 | CCOP(=O)(COCCn1nc(Br)c(=O)[nH]c1=O)OCC | > 100 | > 100 | > 100 | > 100 | > 100 | > 100 | > 100 | > 100 | > 100 | – | – | – | – | – | – | – | – | – | –
2 | O=C1C=CC(=O)c2c(O)c(N3CCN(c4ncccn4)CC3)c(Cl)c(O)c21 | 5.42 | 4.4 | 25.7 | 3.29 | 3.75 | 19.8 | 6.37 | 3.79 | 18 | 3.1 | 3.14 | 6.02 | – | – | – | – | – | – | –
3 | CN(C)C(=O)/N=C1\SC(=Nc2ccccc2)C(=Nc2ccccc2)N1c1ccc([N+](=O)[O-])cc1 | – | > 100 | > 100 | > 100 | > 100 | > 100 | > 100 | > 100 | > 100 | – | > 100 | > 100 | – | – | – | – | – | – | –
4 | O=c1[nH]nc(-c2ccc([N+](=O)[O-])cc2)[nH]1 | > 100 | > 100 | > 100 | > 100 | > 100 | > 100 | > 100 | – | > 100 | > 100 | > 100 | > 100 | – | – | – | – | – | – | –
5 | CSc1ncnc2c1cnn2Cc1cn(COCC(O)CO)nn1 (stereo not given) | > 100 | > 100 | > 100 | > 100 | > 100 | > 100 | > 100 | > 100 | > 100 | > 100 | > 100 | > 100 | – | – | – | – | – | – | –
6 | OC(CCN1CCN(CCOC(c2ccc(F)cc2)c2ccc(F)cc2)CC1)c1ccc(Br)cc1 (stereo not given) | 17 | 5.71 | 3.53 | 6.82 | 6.93 | 29.4 | 4.1 | 3.3 | 21.2 | 7.07 | 7.84 | 12.7 | – | – | – | – | – | – | –
7 | O=C1c2cc3c(cc2-c2c1c1cc(F)c(F)cc1c(=O)n2C[C@H](O)CO)OCO3 | – | 0.206 | 11.2 | 0.422 | – | 4.55 | > 100 | 0.116 | – | – | – | 0.0678 | 0.0288 | 0.14 | 0.125 | 0.207 | 0.0724 | 0.0307 | 0.0153
8 | Cc1ccc(S(=O)(=O)N2CCc3cc(O)c([N+](=O)[O-])cc32)cc1 | > 100 | > 100 | – | > 100 | > 100 | – | > 100 | > 100 | > 100 | > 100 | > 100 | > 100 | – | – | – | – | – | – | –
9 | CC(Br)CN(CC(C)Br)c1ccc2c(c1)Cc1ccccc1-2 (stereo not given) | 19.5 | 21.1 | – | 28 | 30.7 | 34.9 | 25.2 | 25.2 | 27.9 | 23.1 | 23.8 | 24.2 | – | – | – | – | – | – | –
10 | CCOP(=O)(CC1OC(CO)C(O)C1O)OCC (stereo not given) | > 100 | > 100 | > 100 | > 100 | > 100 | > 100 | – | > 100 | > 100 | > 100 | > 100 | > 100 | – | – | – | – | – | – | –
11 | CC1=NN(c2cccc(Cl)c2)C2(C1=Cc1ccc(N(C)C)cc1)C(Cl)C(=O)N2c1nc2ccccc2s1 (stereo not given) | > 100 | > 100 | 41.8 | 72.3 | > 100 | > 100 | > 100 | > 100 | – | > 100 | > 100 | – | – | – | – | – | – | – | –
12 | O=c1ccn([C@@H]2C=C(CO)[C@@H](O)[C@H]2O)c(=O)[nH]1 | – | > 625 | > 625 | – | – | – | > 625 | > 625 | > 625 | – | > 625 | > 625 | – | – | – | – | – | – | –
13 | CCOC(=O)c1c(-c2ccc(OC)cc2)c(C#N)c(=S)n(C2OC(CO)C(O)C(O)C2O)c1C (stereo not given) | – | > 100 | > 100 | > 100 | > 100 | > 100 | > 100 | > 100 | > 100 | > 100 | > 100 | – | – | – | – | – | – | – | –
14 | CC12CCC(=O)[C@@]1(C)CCCC2=O (stereo not given in full) | > 100 | > 100 | > 100 | – | > 100 | > 100 | > 100 | – | > 100 | > 100 | > 100 | > 100 | – | – | – | – | – | – | –
15 | O=C(/C=C/CC(O)(c1ccccc1)c1ccccc1)Nc1ccccc1Cl | > 100 | > 100 | > 100 | – | – | > 100 | > 100 | > 100 | > 100 | – | > 100 | > 100 | – | – | – | – | – | – | –
16 | Oc1ccc(C[C@@H]2CN[C@H](Cc3ccc(O)c(Br)c3)CN2)cc1 | > 100 | > 100 | > 100 | > 100 | – | > 100 | > 100 | – | – | > 100 | > 100 | > 100 | – | – | – | – | – | – | –
17 | COc1ccc(CCn2ccc(=O)c(O)c2C)cc1OC | > 100 | 12 | – | > 100 | > 100 | > 100 | > 100 | 41.8 | > 100 | 22.3 | > 100 | – | – | – | – | – | – | – | –
18 | CC(=O)OC1COC(N2c3ccccc3[C@@H]3CCc4c([nH]c5ccccc45)[C@@H]32)C(OC(C)=O)C1OC(C)=O (mixture of isomers) | – | > 100 | > 100 | > 100 | > 100 | > 100 | – | > 100 | > 100 | – | > 100 | > 100 | – | – | – | – | – | – | –
19 | CN1C2CCC1C(CO)C(=O)C2 (stereo not given) | > 100 | > 100 | > 100 | > 100 | – | – | > 100 | > 100 | – | – | – | > 100 | – | – | – | – | – | – | –
20 | COc1cccc(Nc2nc3c([nH]2)c(=O)n(C)c(=O)n3C)c1 | – | > 10 | > 10 | > 10 | > 10 | – | > 10 | > 10 | – | > 10 | – | > 10 | – | – | – | – | – | – | –
21 | C=C1C[C@@H]2CC[C@@]34CC5O[C@H]6C(O[C@H]7CC[C@H](CC(=O)O[C@@H]8[C@@H](C)[C@@H]9O[C@@H]%10C[C@]%11(C[C@@H]%12O[C@]%13(C[C@H](C)[C@@H]%14O[C@@H]%15CC(C(COC(C)=O)OC(C)=O)O[C@@H]%15C[C@@H]%14O%13)C[C@H](C)[C@@H]%12O%11)O[C@@H]%10C[C@@H]9O[C@H]8CC8O[C@@H](CC[C@@H]1O2)C[C@@H](C)C8(O)CO)O[C@@H]7[C@@H]6O3)[C@H]5O4 (stereo not given in full) | > 1 | > 1 | > 0.225 | > 0.879 | – | > 1 | > 1 | > 1 | > 1 | > 1 | > 1 | > 1 | – | – | – | – | – | – | –
22 | CCc1nc2c([nH]1)C(=O)c1ccccc1C2=O | > 100 | > 100 | > 100 | – | – | > 100 | > 100 | – | > 100 | > 100 | 80.6 | > 100 | – | – | – | – | – | – | –
23 | CC(=O)N=S(NC(=O)c1ccc(C)cc1)C(Cl)(Cl)Cl (stereo not given) | > 100 | – | 30.5 | 40.7 | > 100 | > 100 | 33.1 | 77.9 | > 100 | 33.1 | > 100 | > 100 | – | – | – | – | – | – | –
24 | CCOC(=O)C(NC(=O)CC)(Nc1ccccc1F)C(F)(F)F (stereo not given) | > 100 | > 100 | > 100 | > 100 | > 100 | > 100 | > 100 | > 100 | > 100 | – | > 100 | > 100 | – | – | – | – | – | – | –
25 | CN(C)CN1C(=O)/C(=N\n2c(-c3ccncc3)n[nH]c2=S)c2ccccc21 | > 100 | > 100 | – | 30.2 | 31.8 | > 100 | 65.2 | > 100 | > 100 | 41.6 | > 100 | > 100 | – | – | – | – | – | – | –
26 | Nc1cc2nc(-c3ccccc3)cn2cn1 | > 100 | > 100 | – | > 100 | > 100 | > 100 | > 100 | > 100 | > 100 | > 100 | > 100 | > 100 | – | – | – | – | – | – | –
27 | Cn1c(=O)c2[nH]c(Nc3cccc(Cl)c3)nc2n(C)c1=O | – | > 10 | > 10 | > 10 | > 10 | – | > 10 | > 10 | – | > 10 | – | > 10 | – | – | – | – | – | – | –
28 | COc1ccccc1Cn1c2c(c3cc(O)ccc31)C(=O)c1ccccc1C2=O | – | 69.7 | – | > 100 | > 100 | 34.1 | 61.9 | > 100 | > 100 | 45.5 | > 100 | 82.9 | – | – | – | – | – | – | –
29 | CCC1(c2ccc(OC)c(OC)c2)CCN2C(=O)C(O)CC21 (stereo not given) | > 100 | > 100 | > 100 | > 100 | > 100 | > 100 | – | > 100 | > 100 | > 100 | > 100 | > 100 | – | – | – | – | – | – | –
30 | CN(C)CCN1C(=O)N(CCN(C)C)c2c3cc(O)ccc3nc3c([N+](=O)[O-])ccc1c23 | 19.1 | 47.9 | 25.8 | 32.9 | 26.7 | – | 36 | 26.8 | 24.2 | 19 | 17.1 | 30.8 | – | – | – | – | – | – | –
